Assay: xn = mol fraction of the nth substance listed, in the solute-free solvent

NC(N)=C([N+](=O)[O-])[N+](=O)[O-] + CS(C)=O + O=C1CCCC1
solubility (g/100 g solution)
Conditions | 293.15 K | 298.15 K | 303.15 K | 308.15 K | 313.15 K | 318.15 K | 323.15 K | 328.15 K | 333.15 K
x2 = 0.1177 | 3.67 | 3.8 | 4.06 | 4.31 | 4.57 | 4.86 | 5.16 | 5.5 | 5.84
x2 = 0.2308 | 7.45 | 7.83 | 8.19 | 8.56 | 8.97 | 9.37 | 9.83 | 10.2 | 10.7
x2 = 0.3397 | 11.5 | 12.1 | 12.6 | 13 | 13.5 | 14 | 14.5 | 15 | 15.6
x2 = 0.4445 | 15.2 | 15.8 | 16.2 | 16.6 | 17.1 | 17.6 | 18.3 | 18.9 | 19.5
x2 = 0.5455 | 18.5 | 19.2 | 19.7 | 20.1 | 20.6 | 21.1 | 21.7 | 22.3 | 22.9
x2 = 0.6429 | 21.3 | 21.9 | 22.4 | 22.9 | 23.4 | 24 | 24.6 | 25.1 | 25.8
x2 = 0.7369 | 23.8 | 24.6 | 25 | 25.5 | 26.1 | 26.6 | 27.2 | 27.8 | 28.5
x2 = 0.8276 | 26 | 26.5 | 27 | 27.4 | 28.1 | 28.6 | 29.2 | 29.8 | 30.4
x2 = 0.9153 | 27.7 | 28.5 | 29 | 29.4 | 30 | 30.5 | 31.1 | 31.8 | 32.4

Nc1ncn(C2OC(CO)C(O)C2O)c(=O)n1 (stereo not given) + O + CC(C)O
solubility (g/100 g solution)
Conditions | 278.15 K | 283.15 K | 288.15 K | 293.15 K | 298.15 K | 303.15 K | 308.15 K | 313.15 K | 318.15 K
x2 = 0.4546 | 0.0657 | 0.0837 | 0.104 | 0.126 | 0.152 | 0.187 | 0.227 | 0.276 | 0.336
x2 = 0.6897 | 0.152 | 0.192 | 0.238 | 0.293 | 0.351 | 0.421 | 0.502 | 0.601 | 0.714
x2 = 0.8334 | 0.275 | 0.349 | 0.429 | 0.516 | 0.613 | 0.717 | 0.851 | 0.997 | 1.17
x2 = 0.9303 | 0.455 | 0.57 | 0.693 | 0.836 | 0.979 | 1.14 | 1.31 | 1.52 | 1.75

Nc1ncn(C2OC(CO)C(O)C2O)c(=O)n1 (stereo not given) + O + CCCO
solubility (g/100 g solution)
Conditions | 278.15 K | 283.15 K | 288.15 K | 293.15 K | 298.15 K | 303.15 K | 308.15 K | 313.15 K | 318.15 K
x2 = 0.4546 | 0.0722 | 0.0869 | 0.104 | 0.124 | 0.149 | 0.177 | 0.208 | 0.241 | 0.279
x2 = 0.6897 | 0.165 | 0.201 | 0.249 | 0.302 | 0.359 | 0.424 | 0.49 | 0.562 | 0.635
x2 = 0.8334 | 0.298 | 0.368 | 0.448 | 0.54 | 0.637 | 0.744 | 0.852 | 0.965 | 1.07
x2 = 0.9303 | 0.488 | 0.59 | 0.72 | 0.861 | 1.01 | 1.17 | 1.33 | 1.49 | 1.66

Nc1ncn(C2OC(CO)C(O)C2O)c(=O)n1 (stereo not given) + O + CCO
solubility (g/100 g solution)
Conditions | 278.15 K | 283.15 K | 288.15 K | 293.15 K | 298.15 K | 303.15 K | 308.15 K | 313.15 K | 318.15 K
x2 = 0.3899 | 0.0889 | 0.101 | 0.115 | 0.133 | 0.153 | 0.177 | 0.206 | 0.238 | 0.275
x2 = 0.6302 | 0.186 | 0.217 | 0.255 | 0.298 | 0.349 | 0.406 | 0.469 | 0.538 | 0.618
x2 = 0.7932 | 0.302 | 0.369 | 0.443 | 0.524 | 0.614 | 0.709 | 0.813 | 0.924 | 1.05
x2 = 0.9109 | 0.498 | 0.588 | 0.704 | 0.836 | 0.976 | 1.12 | 1.28 | 1.46 | 1.65

Nc1ncn(C2OC(CO)C(O)C2O)c(=O)n1 (stereo not given) + O + CO
solubility (g/100 g solution)
Conditions | 278.15 K | 283.15 K | 288.15 K | 293.15 K | 298.15 K | 303.15 K | 308.15 K | 313.15 K | 318.15 K
x2 = 0.3077 | 0.0966 | 0.113 | 0.129 | 0.148 | 0.169 | 0.194 | 0.228 | 0.273 | 0.324
x2 = 0.5424 | 0.198 | 0.229 | 0.265 | 0.307 | 0.359 | 0.419 | 0.491 | 0.575 | 0.673
x2 = 0.7273 | 0.335 | 0.397 | 0.463 | 0.542 | 0.632 | 0.742 | 0.869 | 1 | 1.14
x2 = 0.8767 | 0.521 | 0.634 | 0.758 | 0.888 | 1.02 | 1.17 | 1.34 | 1.52 | 1.71

Nc1cc(-c2ccncc2)c[nH]c1=O + OCCO + O
solubility (g/100 g solution)
Conditions | 278.15 K | 283.15 K | 288.15 K | 293.15 K | 298.15 K | 303.15 K | 308.15 K | 313.15 K | 318.15 K | 323.15 K
x2 = 0.03125 | 0.000969 | 0.00114 | 0.00136 | 0.0016 | 0.00188 | 0.00216 | 0.00248 | 0.00283 | 0.00323 | 0.00367
x2 = 0.06767 | 0.00136 | 0.0016 | 0.00191 | 0.00224 | 0.00262 | 0.00301 | 0.00345 | 0.00393 | 0.00447 | 0.00508
x2 = 0.1107 | 0.00187 | 0.00221 | 0.00263 | 0.0031 | 0.00358 | 0.00411 | 0.00469 | 0.00542 | 0.00618 | 0.00703
x2 = 0.1622 | 0.00264 | 0.00312 | 0.00368 | 0.00432 | 0.00505 | 0.00577 | 0.00658 | 0.00746 | 0.00845 | 0.00955
x2 = 0.225 | 0.0034 | 0.00407 | 0.00476 | 0.00562 | 0.00649 | 0.00751 | 0.00852 | 0.00976 | 0.0111 | 0.0126
x2 = 0.3034 | 0.00444 | 0.00524 | 0.00616 | 0.00725 | 0.00846 | 0.00962 | 0.0109 | 0.0124 | 0.014 | 0.0158
x2 = 0.4038 | 0.00528 | 0.00637 | 0.00751 | 0.00882 | 0.0103 | 0.0117 | 0.0131 | 0.0148 | 0.0168 | 0.0189
x2 = 0.5373 | 0.00588 | 0.00697 | 0.00817 | 0.00966 | 0.0113 | 0.0128 | 0.0146 | 0.0165 | 0.0186 | 0.021
x2 = 0.7232 | 0.00648 | 0.00764 | 0.00919 | 0.0108 | 0.0123 | 0.014 | 0.016 | 0.0178 | 0.0199 | 0.0224

Nc1ncc(Br)nc1Br + OCCO + O
solubility (g/100 g solution)
Conditions | 278.15 K | 283.15 K | 288.15 K | 293.15 K | 298.15 K | 303.15 K | 308.15 K | 313.15 K | 318.15 K | 323.15 K
x2 = 0.03125 | 0.00637 | 0.0078 | 0.00922 | 0.0109 | 0.0127 | 0.0144 | 0.0164 | 0.0186 | 0.0208 | 0.0231
x2 = 0.06767 | 0.0106 | 0.0129 | 0.0152 | 0.018 | 0.0209 | 0.0235 | 0.0267 | 0.0302 | 0.0336 | 0.0373
x2 = 0.1107 | 0.0164 | 0.02 | 0.0235 | 0.0276 | 0.032 | 0.036 | 0.0408 | 0.0459 | 0.0511 | 0.0566
x2 = 0.1622 | 0.0238 | 0.0288 | 0.0338 | 0.0398 | 0.046 | 0.0518 | 0.0585 | 0.0657 | 0.0731 | 0.0809
x2 = 0.225 | 0.0307 | 0.0375 | 0.0446 | 0.0526 | 0.0606 | 0.0684 | 0.0774 | 0.0866 | 0.0965 | 0.108
x2 = 0.3034 | 0.0394 | 0.0471 | 0.0562 | 0.0663 | 0.0766 | 0.0874 | 0.0983 | 0.111 | 0.124 | 0.138
x2 = 0.4038 | 0.0467 | 0.0558 | 0.0667 | 0.0788 | 0.0911 | 0.104 | 0.118 | 0.133 | 0.148 | 0.164
x2 = 0.5373 | 0.0508 | 0.0614 | 0.0739 | 0.0875 | 0.103 | 0.116 | 0.132 | 0.148 | 0.165 | 0.184
x2 = 0.7232 | 0.0528 | 0.0647 | 0.077 | 0.0912 | 0.106 | 0.12 | 0.137 | 0.154 | 0.173 | 0.194

c1ccc2c(c1)CCc1ccccc1N2 + OCCO + O
solubility (g/100 g solution)
Conditions | 283.15 K | 288.15 K | 293.15 K | 298.15 K | 303.15 K | 308.15 K | 313.15 K | 318.15 K | 323.15 K | 328.15 K
x2 = 0.03125 | 0.0117 | 0.0166 | 0.0228 | 0.032 | 0.0373 | 0.0524 | 0.0651 | 0.088 | 0.117 | 0.153
x2 = 0.06775 | 0.0425 | 0.0584 | 0.0728 | 0.0999 | 0.124 | 0.165 | 0.207 | 0.265 | 0.333 | 0.406
x2 = 0.1107 | 0.0709 | 0.0954 | 0.123 | 0.162 | 0.202 | 0.258 | 0.32 | 0.397 | 0.49 | 0.598
x2 = 0.1615 | 0.0799 | 0.106 | 0.135 | 0.174 | 0.214 | 0.272 | 0.331 | 0.404 | 0.491 | 0.593
x2 = 0.2258 | 0.0897 | 0.118 | 0.144 | 0.179 | 0.221 | 0.265 | 0.32 | 0.381 | 0.455 | 0.558
x2 = 0.3035 | 0.0971 | 0.123 | 0.148 | 0.178 | 0.215 | 0.256 | 0.304 | 0.359 | 0.421 | 0.515
x2 = 0.4027 | 0.107 | 0.131 | 0.154 | 0.184 | 0.223 | 0.261 | 0.313 | 0.359 | 0.402 | 0.47
x2 = 0.5389 | 0.114 | 0.14 | 0.166 | 0.197 | 0.232 | 0.272 | 0.308 | 0.353 | 0.401 | 0.458
x2 = 0.7239 | 0.117 | 0.139 | 0.167 | 0.197 | 0.231 | 0.263 | 0.296 | 0.329 | 0.366 | 0.411
